Results taken from PMC4520450, “Procyanidins Negatively Affect the Activity of the Phosphatases of Regenerating Liver” (PLoS ONE, 2015).
Read-outs that look alike come from different tables or passages of the source.

What was measured:
PRL-3 = molecular target: T1, PRL-3 (Homo sapiens, UniProt O75365); assay: DiFMUP phosphatase activity assay for PRLs; type: biochemical
T1 construct: His-TEV (cleaved yes); made in house
Method: Biochemical phosphatase activity measurements were carried out in the presence of different concentrations of various polyphenols, compounds 1–11 (Fig 1), using recombinant PRL-3 and 6,8-difluoro-4-methylumbelliferyl phosphate (DiFMUP) as a fluorogenic substrate (see the experimental procedures). We observed that the monomeric epicatechins EGC and EC inhibit PRL-3 only weakly, with a slightly better activity of EGC, which bears three hydroxyl groups at the B-ring. […] In general, as a basic structure activity-relationship the following trend was observed: a higher number of hydroxyl groups at the B-ring increased the activity slightly. […] The influence of the stereochemistry at C(2)–C(3) was studied by using GCG (the trans-epimer of EGCG).
(§1) Fig 2 Effect of polyphenolic compounds 8 (A), 9 (B), 10 (C) and 11 (D) on the phosphatase activity of PRL-1, PRL-2, PRL-3, PP1, and PP2A. Proteins were incubated for 30 min with 0–1000 μM of the corresponding procyandin 8–11. Phosphatase activity was measured in the presence of DiFMUP at 25°C using the concentration corresponding to the KM of each protein. The KM for PRLs was determined separately (PRL-3 = 21 μM, PRL-2 and PRL-1 = 24 μM). The KM for PP1 (91 μM) and for PP2A (100 μM) was taken from the literature. Protein concentrations are 50 nM for all PRLs and 2 mU for PP1 and 0.05 U for PP2A (see the Experimental Procedures). Phosphatase activity in the absence of inhibitors was set as 100%. Data represent means ± standard errors of the mean (n = 3–5).
(§2) DiFMUP assay for PRLs: In a final reaction volume of 100 μL the PRLs (50 nM final concentration) were incubated with decreasing concentrations of the inhibitory polyphenols for 30 minutes at 25°C. The buffer conditions were 108 mM TrisCl (pH 7.5), Triton 0.05% (v/v), DTT 27.0 mM, NaCl 811 mM. After the incubation time 20 μL DiFMUP (6,8-Difluoro-4-methylumbelliferyl phosphate) was added to reach a final concentration of 21 μM for PRL-3 and 24 μM for PRL-1 and PRL-2. On a Tecan safire2 (Tecan, Salzburg, Austria) plate reader dephosphorylation of the substrate to its fluorescent product was monitored by following the emission at 358 nm with excitation at 452 nm for 20 minutes. All measurements were done in triplicates, and the experiments were repeated at least three times. The slopes of the initial phases were obtained by linear regression of the data points. The normalized reaction rates were plotted versus the log of the inhibitor concentrations and the IC50 values were obtained by fitting the curves using the one site competition model of GraphPad Prism (GraphPad Software, Version 5). KM values were determined by measuring reaction kinetics of substrate dilution series. Initial velocities were plotted against DiFMUP concentration and the data was analyzed by Michaelis-Menten kinetics curve fitting of GraphPad Prism. A final DMSO content of 0.4% was maintained for the monomeric catechins. Due to the high water solubility of the procyanidins DMSO was not required and measurements were done in assay buffer only.

PRL-1 = molecular target: T2, PRL-1 (Homo sapiens, UniProt Q93096); assay: DiFMUP phosphatase activity assay for PRLs; type: biochemical
T2 construct: His-TEV (cleaved yes); made in house
T2 sequence (Q93096 1-173): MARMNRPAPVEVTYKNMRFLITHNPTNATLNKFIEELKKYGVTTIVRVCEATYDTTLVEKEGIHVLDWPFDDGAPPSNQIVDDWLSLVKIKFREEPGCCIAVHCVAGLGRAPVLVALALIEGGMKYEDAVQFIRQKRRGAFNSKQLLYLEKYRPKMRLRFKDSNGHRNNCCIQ
Method: as §1, §2

PP1 = molecular target: T3, PP1 (Oryctolagus cuniculus, UniProt P62139); assay: DiFMUP assay for PP1; type: biochemical
T3 construct: purchased NewEngland Biolabs; host or cells: E. coli
Method: as §1
(§3) BSA, which is usually supplemented to the assay buffer for stabilizing the PPs was however excluded, as BSA is known to form complexes with polyphenolic compounds [40–42] and thus would decrease the concentrations of the inhibitor in the assay. […] In contrast, the phosphatase activity of PP2A was suppressed to a much lesser extent with weak (for trimer 9 and hexamer 11) and strong statistical significance (dimer 8 and tetramer 10). Thus our results corroborate the data reported previously.
DiFMUP assay for PP1: In a final reaction volume of 100 μL PP1c (2 mU final concentration, according to manufacturer’s instructions) were incubated with decreasing concentrations of the inhibitory polyphenols for 30 minutes at 25°C. The assay buffer contained 25 mM imidazole (pH 7.4), 1 mM dithiothreitol (DTT), and 50 mM NaCl. Bovine serum albumin (BSA) was excluded due to possible binding of the polyphenolic compounds. After the incubation time 20 μL DiFMUP (6,8-Difluoro-4-methylumbelliferyl phosphate) was added to reach a final concentration of 100 μM. Monitoring of the fluorescent dephosphorylation product was monitored and data analyzed as described above.

PRL-2 = molecular target: T4, PRL-2 (Homo sapiens, UniProt Q12974); assay: DiFMUP phosphatase activity assay for PRLs; type: biochemical; settings: 50 nM PRL-2, 30 min preincubation, 25°C, 24 μM DiFMUP; mean ± SEM (n = 3–5); read-out: IC50 (Ki) PRL-2
T4 construct: His-TEV (cleaved yes); made in house
T4 sequence (Q12974 1-167): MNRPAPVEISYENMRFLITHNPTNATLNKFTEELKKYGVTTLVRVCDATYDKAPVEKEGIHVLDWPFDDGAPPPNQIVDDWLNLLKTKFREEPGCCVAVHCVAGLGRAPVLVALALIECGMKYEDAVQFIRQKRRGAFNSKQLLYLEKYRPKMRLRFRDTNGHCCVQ
Method: as §1, §2

PP2A = molecular target: T5, PP2A (Homo sapiens, UniProt P67775); assay: DiFMUP assay for PP2A; type: biochemical; settings: 0.05 U PP2A, 30 min preincubation, 25°C, no BSA, mean ± SEM (n = 3–5), read-out: IC50 (Ki) PP2A
T5 construct: purified from human red blood cells; purchased Merck Millipore; host or cells: human red blood cells
Method: as §1, §3
Chemicals and vendors were as follows: Synthesis of Procyanidins (dimer to dodecamer) was done as previously reported. EGCG, EGC, ECG and EC were synthesized as previously reported or purchased from Sigma. (+)-Catechin and 3-(4,5-dimethylthiazol-2-yl)-2,5-diphenyltetrazolium bromide (MTT) were obtained from Sigma. 6,8-Difluoro-4-Methylumbelliferyl Phosphate (DiFMUP), propidium iodide and calcein AM were from lifescience technologies. Cell dissociation solution (10X) was purchased from amsbio. PP1c (recombinant from E. coli) was purchased from NewEngland Biolabs and PP2A (purified from human red blood cells, contains different subunits according to manufacturer) from Merck Millipore. Transwell plates (BRANDplates) and insert stripes for the migration assay were purchased from Brand GmbH. Black 96 well plates (96F Nunclon Delta) were purchased from Thermo Scientific. Transparent 96 well assay plates with UV transparent bottom were purchased from Corning Inc. Wound healing experiments were carried out with μ-dish 35 mm culture inserts, which were purchased from Ibidi.
DiFMUP assay for PP2A: In a final reaction volume of 100 μL PP2A (0.05 U final concentration, according to manufacturer’s instructions) were incubated with decreasing concentrations of the inhibitory polyphenols for 30 minutes at 25°C. The assay buffer contained 50 mM TrisCl (pH 7.5), 250 mM NaCl, 0.1 mM EDTA, 1 mM MnCl2, and 2 mM dithiothreitol (DTT). […] Monitoring of the fluorescent dephosphorylation product was monitored and data analyzed as described above.

protein phosphatase-1 = molecular target: protein phosphatase-1; design: method as in PMID 22260360; settings: cited from earlier work
[1] = tested on: PRL-3 overexpressing HEK293 cells; assay: Wound healing assay; type: cell-based; settings: 35 μM analog 3, PRL-3 overexpressing cells
Method: (§4) To study if procyanidin C2 is able to inhibit PRL-1 and PRL-3 in cells, HEK293 cells were treated in a wound-healing assay (see the experimental procedures). […] As a control the empty vector cell line was again utilized. […] The migration speed was for all cell lines similar when treated with 50 μM of 9. To further corroborate these findings we performed additionally a transwell assay as an alternative way to study cell migration.
(§5) Fig 6 Wound healing abilities of PRL-1 or PRL-3 overexpressing or empty vector control HEK293 cell lines were analyzed in the presence of compound 9 or medium only. Cells were seeded at a concentration of 800,000 cells per insert and procyanidin C2 (9) was added at a concentration of 25 and 50 μM. A) Pictures of the wound gaps were taken at 0 h and 7 h for both conditions (with and without treatment). B) Quantification of the wound healing experiment. Speed of migration is shown for combined data from different replicates, as mean ± SD (n = 38–88). Two-sided t-tests with Welsh correction were performed for p < 0.05. ns = not significant;***: < 0.001; **: < 0.01; *: < 0.05. C) Effect of polyphenolic compounds in a transwell assay on the cell migration of HEK293 empty vector and PRL-3 overexpressing cell lines. Cells were seeded at a concentration of 100,000 cells per insert and procyanidin C2 (9) was added at a final concentration of 25 and 50 μM. Migration was allowed for 16 h before harvesting and staining with calcein AM for fluorescent readout. Mean ± SD (n = 60–72) is shown for combined data from different replicates. Two-sided t-tests with Welsh correction were performed for p < 0.05. ns = not significant. D) Quantification of wound healing experiment including blocking PRL-1 and PRL-3 with analog 3. Speed of migration is shown for combined data from different replicates, as mean ± SD (n = 63–82). Two-sided t-tests with Welsh correction were performed for p < 0.05.
(§6) Wound healing experiments were carried out with μ-dish 35mm culture inserts. 8 × 10^5 cells/mL of the respective HEK293 stable cell lines were seeded into each of the two insert wells and allowed to settle for 40 h in the presence of tetracycline. Then the inserts were gently removed and growth medium supplemented with 7.5% FBS and 0.1% tetracycline was added as well as procyanidin C2 (9) or procyanidin B3 (8) at a final concentration of 25, 50 or 75 μM. For the experiment including blocking of PRLs with analog 3, the latter one was added at a final concentration of 35 μM, followed by addition of procyanidin C2 (9) at either 25 or 50 μM final concentration. Negative controls contained growth medium with FBS only. Pictures of the wound gap were taken at 0 h and 7 h time points. A Zeiss Cellobserver HS microscope was used with 10 × magnitude. For data analysis, in each experiment, the distances between both cell fronts at time point 0 h and 7 h were measured by taking 20 different measuring points. Then all the measurements from different replicates (4) for each experiment were combined and analyzed by t-test using Welsh correction in GraphPad Prism. Data are shown with 99% confidence intervals.

[2] = tested on: PRL-1 overexpressing HEK293 cells; assay: Wound healing assay; type: cell-based; settings: 35 μM analog 3, PRL-1 overexpressing cells
Method: as §4, §5, §6

[3] = 50 nM PRL-3, 30 min preincubation, 25°C, 21 μM DiFMUP, mean ± SEM (n = 3–5), read-out: IC50 (Ki) PRL-3

T1 sequence (O75365 whole entry): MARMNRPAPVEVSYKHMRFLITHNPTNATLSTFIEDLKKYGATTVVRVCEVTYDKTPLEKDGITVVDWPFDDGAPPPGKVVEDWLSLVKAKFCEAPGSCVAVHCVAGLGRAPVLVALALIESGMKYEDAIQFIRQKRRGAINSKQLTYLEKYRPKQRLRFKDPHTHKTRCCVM
T3 sequence (P62139 whole entry): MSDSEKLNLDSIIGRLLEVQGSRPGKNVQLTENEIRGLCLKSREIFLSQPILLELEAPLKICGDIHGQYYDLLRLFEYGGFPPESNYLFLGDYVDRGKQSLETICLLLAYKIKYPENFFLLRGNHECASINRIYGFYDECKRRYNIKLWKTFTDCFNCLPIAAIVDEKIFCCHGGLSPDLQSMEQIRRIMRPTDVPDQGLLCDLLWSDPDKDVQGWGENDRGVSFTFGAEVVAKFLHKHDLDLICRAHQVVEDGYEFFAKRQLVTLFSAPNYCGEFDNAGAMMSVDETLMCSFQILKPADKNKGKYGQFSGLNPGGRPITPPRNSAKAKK
T5 sequence (P67775 whole entry): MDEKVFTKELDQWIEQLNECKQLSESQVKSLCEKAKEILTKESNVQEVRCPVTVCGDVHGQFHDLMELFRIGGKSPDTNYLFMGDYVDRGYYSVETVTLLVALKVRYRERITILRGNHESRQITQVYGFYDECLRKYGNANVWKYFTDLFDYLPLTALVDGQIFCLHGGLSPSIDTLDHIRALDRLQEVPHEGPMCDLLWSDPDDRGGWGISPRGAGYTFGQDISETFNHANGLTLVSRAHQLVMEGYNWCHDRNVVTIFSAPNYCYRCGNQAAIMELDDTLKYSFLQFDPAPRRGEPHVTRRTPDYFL
T5 sequence (P30153 2-589 partner limits assumed): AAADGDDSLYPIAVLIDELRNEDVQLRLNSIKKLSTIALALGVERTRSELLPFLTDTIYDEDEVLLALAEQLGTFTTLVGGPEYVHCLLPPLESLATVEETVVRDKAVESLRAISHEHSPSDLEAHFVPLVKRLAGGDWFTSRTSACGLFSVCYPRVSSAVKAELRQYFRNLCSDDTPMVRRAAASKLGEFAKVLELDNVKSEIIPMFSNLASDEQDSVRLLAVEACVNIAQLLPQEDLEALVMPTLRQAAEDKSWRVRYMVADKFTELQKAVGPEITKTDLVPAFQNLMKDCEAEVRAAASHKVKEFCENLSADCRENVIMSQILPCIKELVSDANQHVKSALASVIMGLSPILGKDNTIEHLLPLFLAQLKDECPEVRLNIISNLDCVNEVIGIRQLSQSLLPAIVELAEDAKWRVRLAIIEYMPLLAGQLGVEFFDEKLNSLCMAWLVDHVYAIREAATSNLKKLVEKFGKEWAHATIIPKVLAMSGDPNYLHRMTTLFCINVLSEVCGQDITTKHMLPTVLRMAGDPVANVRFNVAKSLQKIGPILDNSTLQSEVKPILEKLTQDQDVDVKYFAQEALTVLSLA

## Oc1cc(O)c2c(c1)O[C@H](c1ccc(O)c(O)c1)[C@@H](O)C2 [(+)-Catechin (6), (+)-Catechin]
PRL-3; [3]
  IC50: 456 ± 65.6 µM
PRL-1
  IC50 toward PRL-1 relative to IC50 values of the oligomers: 50 fold
  IC50 toward PRL-1 relative to PRL-3: about three times lower
PRL-1; 50 nM PRL-1, 30 min preincubation, 25°C, 24 μM DiFMUP, mean ± SEM (n = 3–5), read-out: IC50 (Ki) PRL-1
  IC50: 158 ± 1.2 µM

## Oc1cc(O)c2c(c1)O[C@H](c1ccc(O)c(O)c1)[C@H](O)C2 [EC (1), (–)-epicatechin]
PRL-3; [3]
  IC50: 514 ± 68.2 µM

## O=C(O[C@@H]1Cc2c(O)cc(O)cc2O[C@@H]1c1ccc(O)c(O)c1)c1cc(O)c(O)c(O)c1 [ECG (2), (–)-epicatechin-3-O-gallate]
PRL-3
  increase in PRL-3 inhibition of 3-gallate ester compared to non-gallate (2 vs 1, 4 vs 3): about two-fold increase
PRL-3; [3]
  IC50: 181 ± 13.6 µM

## Oc1cc(O)c2c(c1)O[C@H](c1cc(O)c(O)c(O)c1)[C@H](O)C2 [EGC (3), (–)-epigallocatechin]
PRL-3; [3]
  IC50: 285 ± 3.7 µM

## O=C(O[C@H]1Cc2c(O)cc(O)cc2O[C@@H]1c1cc(O)c(O)c(O)c1)c1cc(O)c(O)c(O)c1 [GCG (5)]
PRL-3; [3]
  IC50: 113 ± 10.7 µM

## O=C(O)c1cc(O)c(O)c(O)c1 [Gallic acid (7), Gallic acid]
PRL-3
  IC50: > 1000 µM
PRL-3; up to 1000 μM
  inhibition of PRL-3: did not show any inhibition

## Oc1cc(O)c2c(c1)O[C@H](c1ccc(O)c(O)c1)[C@@H](O)[C@@H]2c1c(O)cc(O)c2c1O[C@H](c1ccc(O)c(O)c1)[C@@H](O)[C@@H]2c1c(O)cc(O)c2c1O[C@H](c1ccc(O)c(O)c1)[C@@H](O)[C@@H]2c1c(O)cc(O)c2c1O[C@H](c1ccc(O)c(O)c1)[C@@H](O)[C@@H]2c1c(O)cc(O)c2c1O[C@H](c1ccc(O)c(O)c1)[C@@H](O)[C@@H]2c1c(O)cc(O)c2c1O[C@H](c1ccc(O)c(O)c1)[C@@H](O)C2 [Hexamer (11)]
PRL-3; [3]
  IC50: 12.5 ± 1.8 µM
PP1
  PP1 potency of hexamer compared to tetramer 10: increased only about two-fold
PP1; 2 mU PP1c, 30 min preincubation, 25°C, DiFMUP, no BSA, mean ± SEM (n = 3–5), read-out: IC50 (Ki) PP1
  IC50: 7 ± 2.3 µM
PRL-2
  IC50: 10 ± 0.4 µM
PP2A
  IC50: 32.5 ± 4.8 µM

## O=C(OC[C@H]1O[C@@H](OC(=O)c2cc(O)c(O)c(O)c2)[C@H](OC(=O)c2cc(O)c(O)c(O)c2)[C@@H](OC(=O)c2cc(O)c(O)c(O)c2)[C@@H]1OC(=O)c1cc(O)c(O)c(O)c1)c1cc(O)c(O)c(O)c1 [PGG, 1,2,3,4,6-penta-O-galloyl-beta-D-glucose, reference compound]
Protein phosphatase-1
  IC50: 0.4 µM

## Oc1cc(O)c2c(c1)O[C@H](c1cc(O)c(O)c(O)c1)[C@H](O)C2 [analog 3, reference compound]
[1]
  migration speed, wound healing: fell back to the baseline level of the empty vector cell line
[2]
  migration speed, wound healing: a bit lower than the baseline
